Structures can show the parent of a compound that is named as a salt.
What was measured:
[1] = Stability of the compound in pH 7 ammonium acetate buffer by UPLC-MS/MS analysis; assay type: physicochemical
arylsulfatase [2] = experiment: Substrate activity at Helix pomatia arylsulfatase assessed as enzyme-mediated compound hydrolysis by measuring Km by UPLC-MS/MS analysis; assay type: ADME; conditions: Helix pomatia arylsulfatase (isolated enzyme)
[3] = Substrate activity at Helix pomatia arylsulfatase assessed as enzyme-mediated compound hydrolysis by measuring Vmax by UPLC-MS/MS analysis; assay type: ADME
arylsulfatase [4] = experiment: Substrate activity at Helix pomatia arylsulfatase assessed as enzyme-mediated compound hydrolysis using 1 U of enzyme measured after 30 mins by UPLC-MS/MS analysis; assay type: ADME; conditions: Helix pomatia arylsulfatase (isolated enzyme), read-out: Drug metabolism
[5] = Substrate activity at Helix pomatia arylsulfatase assessed as enzyme-mediated compound hydrolysis by measuring catalytic efficiency by UPLC-MS/MS analysis; assay type: ADME
arylsulfatase [6] = experiment: Substrate activity at Helix pomatia arylsulfatase assessed as enzyme-mediated compound hydrolysis using 1 U of enzyme measured after 24 hrs by UPLC-MS/MS analysis; assay type: ADME; conditions: Helix pomatia arylsulfatase (isolated enzyme), read-out: Drug metabolism
[7] = Drug metabolism in pH 7 ammonium acetate buffer assessed as 7-hydroxy-4-methyl-2H-chromen-2-one formation
arylsulfatase [8] = experiment: Substrate activity at Helix pomatia arylsulfatase assessed as enzyme-mediated compound hydrolysis by measuring parent compound remaining using 0.1 U of enzyme measured after 30 mins by UPLC-MS/MS analysis; assay type: ADME; conditions: Helix pomatia arylsulfatase (isolated enzyme), read-out: Stability
arylsulfatase [9] = experiment: Substrate activity at Helix pomatia arylsulfatase assessed as enzyme-mediated compound hydrolysis using 5 U of enzyme measured after 30 mins by UPLC-MS/MS analysis; assay type: ADME; conditions: Helix pomatia arylsulfatase (isolated enzyme), read-out: Drug metabolism

SMILES: COc1ccc2c(c1)c(=O)oc1cc(OS(=O)(=O)O)ccc12
- Stability [1]: Stable
- Km (arylsulfatase [2]): 112 µM
- Vmax [3]: 8.21 µM/s
- metabolised at 0.5 h (arylsulfatase [4]): 100%

SMILES: O=[N+]([O-])c1ccc(OS(=O)(=O)O)cc1
- Stability [1]: Stable
- metabolised at 0.5 h (arylsulfatase [4]): 100%

SMILES: CCc1ccc(OS(=O)(=O)O)cc1
- Activity [5]: 7010 s⁻¹ µM⁻¹
- Stability [1]: Stable
- Km (arylsulfatase [2]): 1020 µM
- Vmax [3]: 0.66 µM/s
- metabolised at 24 h (arylsulfatase [6]): 100%

SMILES: C[C@]12CC[C@@H]3c4ccc(OS(=O)(=O)O)cc4CC[C@H]3[C@@H]1CCC2=O [ESTRONE SULFURIC ACID]
- Stability [1]: Stable
- Km (arylsulfatase [2]): 351 µM
- Vmax [3]: 3.8 µM/s
- metabolised at 0.5 h (arylsulfatase [4]): 100%

SMILES: Cc1c[nH]c2ccc(OS(=O)(=O)O)cc12
- Stability [1]: Stable
- metabolised at 24 h (arylsulfatase [6]): 100%

SMILES: O=S(=O)(O)Oc1cccc(O)c1
- Activity [5]: 696 s⁻¹ µM⁻¹
- Stability [1]: Stable
- Km (arylsulfatase [2]): 131 µM
- Vmax [3]: 0.01 µM/s
- metabolised at 24 h (arylsulfatase [6]): 100%

SMILES: CC(=O)NCCc1ccc(OS(=O)(=O)O)cc1
- Activity [5]: 1210 s⁻¹ µM⁻¹
- Stability [1]: Stable
- Km (arylsulfatase [2]): 1490 µM
- Vmax [3]: 0.17 µM/s
- metabolised at 24 h (arylsulfatase [6]): 100%

SMILES: O=S(=O)(O)Oc1c[nH]c2ccccc12 [INDOXYL SULFATE]
- Activity [5]: 1060 s⁻¹ µM⁻¹
- Stability [1]: Stable
- Km (arylsulfatase [2]): 216 µM
- Vmax [3]: 0.02 µM/s
- metabolised at 24 h (arylsulfatase [6]): 100%

SMILES: C=Cc1ccc(OS(=O)(=O)O)c(OC)c1
- Stability [1]: Stable
- metabolised at 0.5 h (arylsulfatase [4]): 100%

SMILES: COc1cc(C(=O)O)ccc1OS(=O)(=O)O
- Activity [5]: 351 s⁻¹ µM⁻¹
- Stability [1]: Stable
- Km (arylsulfatase [2]): 341 µM
- Vmax [3]: 0.01 µM/s
- metabolised at 24 h (arylsulfatase [6]): 100%

SMILES: COc1cc(/C=C/C(=O)O)ccc1OS(=O)(=O)O
- Activity [5]: 862 s⁻¹ µM⁻¹
- Stability [1]: Stable
- Km (arylsulfatase [2]): 161 µM
- Vmax [3]: 0.01 µM/s
- metabolised at 24 h (arylsulfatase [6]): 100%

SMILES: Cc1cc(=O)oc2cc(OS(=O)(=O)O)ccc12
- Stability [1]: Stable
- Drug metabolism [7]: Metabolite detected
- Km (arylsulfatase [2]): 175 µM
- Vmax [3]: 2.66 µM/s
- metabolised at 0.5 h (arylsulfatase [4]): 100%
- remaining at 0.5 h (arylsulfatase [8]): 3%
- metabolised at 0.5 h (arylsulfatase [9]): 100%

SMILES: O=C(O)/C=C/c1ccc(OS(=O)(=O)O)cc1
- Activity [5]: 898 s⁻¹ µM⁻¹
- Stability [1]: Stable
- Km (arylsulfatase [2]): 262 µM
- Vmax [3]: 0.02 µM/s
- metabolised at 24 h (arylsulfatase [6]): 100%

SMILES: Cc1ccc(OS(=O)(=O)O)cc1
- Activity [5]: 623 s⁻¹ µM⁻¹
- Stability [1]: Stable
- Km (arylsulfatase [2]): 1400 µM
- Vmax [3]: 0.08 µM/s
- metabolised at 24 h (arylsulfatase [6]): 100%

Reference: ChEMBL document CHEMBL4422681, “Comprehensive kinetic and substrate specificity analysis of an arylsulfatase from Helix pomatia using mass spectrometry” (Bioorg Med Chem, 2019)
